Results from ChEMBL document CHEMBL1201862, “PubChem BioAssay data set” (2004).
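Test compounds were applied to cells in 96-well plates for 48 hours at 5 doses. The concentration for 50% growth inhibition is given as GI50.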 Active and inactive are the calls of the source. No stated cut-off is given here; in the data, active = GI50 up to about 1.1 µM and inactive = higher.

Assays:
Experiment in all cases: DTP human tumour cell line panel, 48 h
[1] = test system: OVCAR-5
[2] = test system: SK-MEL-2
[3] = test system: CCRF-CEM
[4] = test system: MDA-MB-435
[5] = test system: SK-MEL-28
[6] = test system: NCI/ADR-RES
[7] = test system: UO-31
[8] = test system: SW-620
[9] = test system: MDA-N
[10] = test system: SF-539
[11] = test system: DU-145
[12] = test system: SN12C
[13] = test system: UACC-62
[14] = test system: K562
[15] = test system: MDA-MB-231
[16] = test system: TK-10
[17] = test system: T47D
[18] = test system: A498
[19] = test system: KM12
[20] = test system: M14

`C/C(=N\O)c1ccc(Nc2c3ccccc3nc3occc23)cc1` was tested, and the GI50 [1] was 2.75 µM (inactive), the GI50 [2] was 0.196 µM (active) and the GI50 [3] was 0.184 µM (active). For the same compound, the GI50 [4] was 0.0246 µM (active), the GI50 [5] was 0.659 µM (active) and the GI50 [6] was 0.115 µM (active). The GI50 [7] was 3.49 µM (inactive), the GI50 [8] was 0.21 µM (active) and the GI50 [9] was 0.0847 µM (active). For the same compound, the GI50 [10] was 0.169 µM (active), the GI50 [11] was 1.05 µM (active) and the GI50 [12] was 1.44 µM (inactive). The GI50 [13] was 0.228 µM (active), the GI50 [14] was 0.174 µM (active) and the GI50 [15] was 0.9 µM (active). For the same compound, the GI50 [16] was 1.17 µM (inactive), the GI50 [17] was 0.553 µM (active) and the GI50 [18] was 1.11 µM (active). The GI50 [19] was 0.231 µM (active) and the GI50 [20] was 0.236 µM (active).

For `CN1CCN(C(=O)CCNC(=O)Cc2ccc(C(=O)c3ccccc3)cc2)CC1`, the GI50 [1] was > 100 µM (inactive), the GI50 [2] was > 100 µM (inactive) and the GI50 [3] was 94.8 µM (inactive). For the same compound, the GI50 [4] was 22.9 µM (inactive), the GI50 [5] was > 100 µM (inactive) and the GI50 [6] was > 100 µM (inactive). For the same compound, the GI50 [7] was > 100 µM (inactive), the GI50 [8] was 97.3 µM (inactive) and the GI50 [9] was 15.5 µM (inactive). The GI50 [10] was > 100 µM (inactive), the GI50 [11] was > 100 µM (inactive) and the GI50 [12] was > 100 µM (inactive). The GI50 [13] was > 100 µM (inactive), the GI50 [14] was 27.9 µM (inactive) and the GI50 [15] was > 100 µM (inactive). For the same compound, the GI50 [16] was > 100 µM (inactive), the GI50 [17] was > 100 µM (inactive) and the GI50 [18] was 83.4 µM (inactive). For the same compound, the GI50 [19] was 48.6 µM (inactive) and the GI50 [20] was > 100 µM (inactive).

In the case of `CCCNC(=S)N/N=C(\C)c1ccc(S(=O)(=O)N(C)c2ccccc2)cc1`, the GI50 [1] is reported as > 67.6 µM (inactive), the GI50 [2] is reported as 40.8 µM (inactive) and the GI50 [3] is reported as > 31.6 µM (inactive). For the same compound, the GI50 [4] was > 100 µM (inactive), the GI50 [5] was > 100 µM (inactive) and the GI50 [6] was > 89.3 µM (inactive). For the same compound, the GI50 [7] was > 100 µM (inactive), the GI50 [8] was > 100 µM (inactive) and the GI50 [9] was > 100 µM (inactive). For the same compound, the GI50 [10] was 5.25 µM (inactive), the GI50 [11] was > 78.5 µM (inactive) and the GI50 [12] was > 100 µM (inactive). The GI50 [13] was > 100 µM (inactive), the GI50 [14] was > 100 µM (inactive) and the GI50 [15] was 27.9 µM (inactive). For the same compound, the GI50 [16] was 25.5 µM (inactive), the GI50 [17] was > 67.3 µM (inactive) and the GI50 [18] was 55.3 µM (inactive). The GI50 [19] was > 100 µM (inactive) and the GI50 [20] was > 29.1 µM (inactive).

In the case of `CN1c2c(O)nc(N)nc2NCC1CCNc1ccc(C(=O)NC(CCC(=O)O)C(=O)O)cc1` (stereo not given), the GI50 [1] is reported as 1520 µM (inactive), the GI50 [2] is reported as 1470 µM (inactive) and the GI50 [3] is reported as 62.5 µM (inactive). For the same compound, the GI50 [4] was 104 µM (inactive), the GI50 [5] was 695 µM (inactive) and the GI50 [6] was 1920 µM (inactive). For the same compound, the GI50 [7] was 1310 µM (inactive), the GI50 [8] was 52.4 µM (inactive) and the GI50 [9] was 112 µM (inactive). The GI50 [10] was 132 µM (inactive), the GI50 [11] was 1330 µM (inactive) and the GI50 [12] was 540 µM (inactive). For the same compound, the GI50 [13] was 133 µM (inactive), the GI50 [14] was 4.13 µM (inactive) and the GI50 [15] was 1530 µM (inactive). For the same compound, the GI50 [16] was 1030 µM (inactive), the GI50 [17] was 1860 µM (inactive) and the GI50 [18] was 948 µM (inactive). The GI50 [19] was 916 µM (inactive) and the GI50 [20] was 10.3 µM (inactive).

With `COC(=O)c1cnc(Cl)c([N+](=O)[O-])c1` the GI50 [1] was 17.7 µM (inactive), the GI50 [2] was 16.1 µM (inactive) and the GI50 [3] was 2.11 µM (inactive). The GI50 [4] was 6.22 µM (inactive), the GI50 [5] was 17.1 µM (inactive) and the GI50 [6] was 22.4 µM (inactive). The GI50 [7] was 1.96 µM (inactive), the GI50 [8] was 2.03 µM (inactive) and the GI50 [9] was 7.6 µM (inactive). For the same compound, the GI50 [10] was 16.6 µM (inactive), the GI50 [11] was 9.57 µM (inactive) and the GI50 [12] was 12.9 µM (inactive). The GI50 [13] was 16.8 µM (inactive), the GI50 [14] was 2.44 µM (inactive) and the GI50 [15] was 16.3 µM (inactive). For the same compound, the GI50 [16] was 16.3 µM (inactive), the GI50 [17] was 2.09 µM (inactive) and the GI50 [18] was 21.4 µM (inactive). The GI50 [19] was 17.4 µM (inactive) and the GI50 [20] was 14 µM (inactive).

`C=C(Br)CN(C(C)=O)C1CCCCC1` was tested, and the GI50 [1] was > 100 µM (inactive), the GI50 [2] was > 100 µM (inactive) and the GI50 [3] was > 100 µM (inactive). The GI50 [4] was > 100 µM (inactive), the GI50 [5] was > 100 µM (inactive) and the GI50 [6] was > 100 µM (inactive). The GI50 [7] was > 100 µM (inactive), the GI50 [8] was > 100 µM (inactive) and the GI50 [9] was > 100 µM (inactive). For the same compound, the GI50 [10] was > 100 µM (inactive), the GI50 [11] was > 100 µM (inactive) and the GI50 [12] was > 100 µM (inactive). The GI50 [13] was > 100 µM (inactive), the GI50 [14] was > 100 µM (inactive) and the GI50 [15] was > 100 µM (inactive). The GI50 [16] was > 100 µM (inactive), the GI50 [17] was > 100 µM (inactive) and the GI50 [18] was > 100 µM (inactive). For the same compound, the GI50 [19] was > 100 µM (inactive) and the GI50 [20] was > 100 µM (inactive).

With `O=[N+]([O-])C1(CO)COC2(OC1)c1ccccc1-c1ccccc12` the GI50 [1] was > 100 µM (inactive), the GI50 [2] was > 100 µM (inactive) and the GI50 [3] was 25.2 µM (inactive). The GI50 [4] was > 100 µM (inactive), the GI50 [5] was > 100 µM (inactive) and the GI50 [6] was > 48.3 µM (inactive). The GI50 [7] was > 100 µM (inactive), the GI50 [8] was 21.6 µM (inactive) and the GI50 [9] was > 64 µM (inactive). The GI50 [10] was > 69.3 µM (inactive), the GI50 [11] was 39.4 µM (inactive) and the GI50 [12] was 70.1 µM (inactive). The GI50 [13] was > 100 µM (inactive), the GI50 [14] was 64.7 µM (inactive) and the GI50 [15] was > 100 µM (inactive). For the same compound, the GI50 [16] was > 100 µM (inactive), the GI50 [17] was 28.7 µM (inactive) and the GI50 [18] was > 100 µM (inactive). The GI50 [19] was > 100 µM (inactive) and the GI50 [20] was 54.7 µM (inactive).

For `Clc1cc(OC23CC4CC(CC(C4)C2)C3)nc(Cl)n1`, the GI50 [1] was > 100 µM (inactive), the GI50 [2] was 29.6 µM (inactive) and the GI50 [3] was 23.6 µM (inactive). The GI50 [4] was 39.2 µM (inactive), the GI50 [5] was 43.2 µM (inactive) and the GI50 [6] was > 100 µM (inactive). For the same compound, the GI50 [7] was 25.4 µM (inactive), the GI50 [8] was 41.2 µM (inactive) and the GI50 [9] was 50.6 µM (inactive). For the same compound, the GI50 [10] was > 100 µM (inactive), the GI50 [11] was 55.7 µM (inactive) and the GI50 [12] was > 100 µM (inactive). The GI50 [13] was 52.4 µM (inactive), the GI50 [14] was 21.9 µM (inactive) and the GI50 [15] was 33.7 µM (inactive). The GI50 [16] was > 100 µM (inactive), the GI50 [17] was > 100 µM (inactive) and the GI50 [18] was > 100 µM (inactive). For the same compound, the GI50 [19] was > 100 µM (inactive) and the GI50 [20] was 29.9 µM (inactive).

With `Cc1ccc2sc3ccc(N)cc3c(=O)c2c1` the GI50 [1] was > 100 µM (inactive), the GI50 [2] was 53.6 µM (inactive) and the GI50 [3] was 40.3 µM (inactive). The GI50 [4] was 36.9 µM (inactive), the GI50 [5] was > 100 µM (inactive) and the GI50 [6] was 53.2 µM (inactive). For the same compound, the GI50 [7] was 29 µM (inactive), the GI50 [8] was 62.1 µM (inactive) and the GI50 [9] was 26.8 µM (inactive). The GI50 [10] was 53.2 µM (inactive), the GI50 [11] was 53 µM (inactive) and the GI50 [12] was 81.1 µM (inactive). For the same compound, the GI50 [13] was 51.9 µM (inactive), the GI50 [14] was 37.6 µM (inactive) and the GI50 [15] was 86.7 µM (inactive). For the same compound, the GI50 [16] was > 100 µM (inactive), the GI50 [17] was 14.9 µM (inactive) and the GI50 [18] was 22.4 µM (inactive). For the same compound, the GI50 [19] was 20.7 µM (inactive) and the GI50 [20] was 90.2 µM (inactive).
